Reference: US20230241056A1, “PHARMACEUTICAL COMPOSITION FOR TREATING MACULAR DEGENERATION INCLUDING IMIDAZOLINE DERIVATIVE COMPOUND AS ACTIVE INGREDIENT” (FUSION BIOTECHNOLOGY CO., LTD., priority 2021, published 2023)

Legend:
retinal tissue [1] = assay: Drusen and Bruch's membrane thickness in vivo by TEM after Nutlin-3; design: species or system mice; conditions: doxorubicin and Nutlin-3 group
Method: The eyeball of mice in a group injected with a vehicle alone as in Example 9, a group injected with doxorubicin and a vehicle, and a group injected with doxorubicin and Nutlin-3, were fixed with a solution including 2% glutaraldehyde and 3.75% sucrose in 0.1 M sodium phosphate buffer (pH 7.0) for 30 minutes, and washed three times with 0.1 M PBS including 3.75% sucrose for 30 minutes to prepare a sample for TEM. The eye was fixed with a solution including 0.1% osmium tetraoxide and 5% sucrose in 0.05 M sodium phosphate buffer (pH 7.0) for 1 hour and rinsed three times with distilled water. The sample was then dehydrated in a series of acetone solutions (step 20%), which are graded, and embedded in an epoxy resin. The resin was polymerized at 70° C. for 12 hours. Ultra-thin sections (100 nm) were obtained using RMC CR-X ultra microtomes and then images thereof were obtained using a JEOL JEM-1400 electron microscope. The thickness of the Bruch's membrane was measured using TEM. The average thickness of the Bruch's film was determined by measuring the thicknesses in the nine images of respective groups, and the results are shown in FIGS. 16 and 17.

p53 = p53 overexpression induction, western blot; type: cell-based, human; conditions: Nutlin-3 at different concentrations
Method: Doxorubicin-treated senescent cells (SnCs) grown in the 6-well plate of Example 1 and non-senescent cells (non-SnCs) were treated with different concentrations of Nutlin-3, and then, dissolved in RIPA buffer (Thermo Fisher Scientific, 89901) supplemented with protease inhibitor cocktail (Roche, 11697498001, Basel, Switzerland). The protein concentration of cells was quantified using BCA assay (Pierce, 23227, Waltham, USA). The same amount of protein was separated by SDS-PAGE in a 10-12% polyacrylamide gel and transferred to a polyvinylidene difluoride (PVDF) membrane. Then, the PVDF membrane was blocked with 5% skim milk powder in buffer for 1 hour, and anti-p53 (1: 500, Santa Cruz Biotechnology, SC-126) and anti-β-actin (1: 2000, Abcam, ab8226) antibodies were added thereto, incubated overnight at 4° C., and then incubated with horseradish peroxidase-conjugated anti-mouse IgG (1: 5000, Cell Signaling, 7076S) antibodies. The immunoreactive proteins were then visualized using a chemiluminescent substrate (Amersham, RDN2232, Little Chalfont, UK) and quantified with a densitometer using ImageJ software (NIH, USA). All experiments were repeated at least three times.

ZO-1 = assay: Cell tissue alignment state in vivo, ZO-1 expression; conditions: 20 ng/μl Nutlin-3 intravitreal, senescence-induced mice
Method: (§1) After dilation of the eye with TRC-50 IX camera (Topcon, Tokyo, Japan) connected to a digital imaging system (Nikon, Japan) and HRA2 (Heidelberg Engineering, Heidelberg, Germany), the color fundus image and fundus autofluorescence image of the eye of the mice were each captured. […] In addition, in order to identify the cell tissue alignment state, ZO-1 expression was confirmed. Specifically, after blocking the retinal tissue with 1% BSA in PBS for 1 hour, fixed tissue or cells were incubated with primary antibody against ZO-1 (1:250, Invitrogen) overnight at 4° C. Stained tissues or cells were washed twice with PBS for 5 minutes and incubated with Alexa Fluor-conjugated secondary antibody for 2 hours at room temperature. As the secondary antibody, Alexa Fluor 555-conjugated goat anti-mouse IgG (Thermo Fisher Scientific, A-11029, Waltham, USA), Alexa Fluor 488-conjugated goat anti-mouse IgG (Thermo Fisher Scientific, A-21424), Alexa Fluor 555-conjugated goat anti-rabbit IgG (Thermo Fisher Scientific, A-21424), or Alexa Fluor 488-conjugated \u200b\u200b goat anti-rabbit IgG (Thermo Fisher Scientific, A-11034) was used. All secondary antibodies were used after being diluted at the ratio of 1:1000. […]

[2] = system: senescent cells of the retinal tissue; assay: Senescent cell killing in vivo, SA-β-gal staining of retinal tissue; conditions: 20 ng/μl Nutlin-3 intravitreal, 2 injections, Dox or Alu RNA induced mice
Source text: Anterior eyeballs were dissected in cold PBS.

ZO-1 or APOE = assay: ZO-1 and drusen marker APOE expression in vivo with combination; conditions: senescence-induced mice of Example 12
Method: In addition, the expression of ZO-1 and the expression of the drusen marker APOE were confirmed to identify the cell tissue alignment state. Specifically, after blocking the retinal tissue with 1% BSA in PBS for 1 hour, fixed tissue or cells were incubated with primary antibody (1:50, Santa Cruz Biotechnology) against ZO-1 (1:250, Invitrogen) or APOE overnight at 4° C. Stained tissues or cells were washed twice with PBS for 5 minutes and incubated with Alexa Fluor-conjugated secondary antibody for 2 hours at room temperature. As the secondary antibody, Alexa Fluor 555-conjugated goat anti-mouse IgG (Thermo Fisher Scientific, A-11029, Waltham, USA), Alexa Fluor 488-conjugated goat anti-mouse IgG (Thermo Fisher Scientific, A-21424), Alexa Fluor 555-conjugated goat anti-rabbit IgG (Thermo Fisher Scientific, A-21424), or Alexa Fluor 488-conjugated \u200b\u200b goat anti-rabbit IgG (Thermo Fisher Scientific, A-11034) was used. All secondary antibodies were used after being diluted at the ratio of 1:1000. After incubation with the secondary antibody, tissues or cells were stained with nuclear dye DAPI (1:4000, Thermo Fisher Scientific, 62248) or Hoechst 33342 (1:3000, Thermo Fisher Scientific, H3570) in PBS for 15 minutes at room temperature. Thereafter, the tissues were then fixed in a fixing media (Ployscience, 18606-20, PA, USA).

[3] = system: Doxorubicin-treated senescent cells (SnCs) and non-senescent cells (ARPE-19); assay: Selective killing of senescent cells, propidium iodide staining; type: cell-based, human; conditions: PI staining
Method: To determine whether Nutlin-3 selectively killed senescent cells, the cells were treated with Nutlin-3 as follows and stained with propidium iodide.
Doxorubicin-treated senescent cells (SnCs) grown in the 24-well plate of Example 1 and non-senescent cells (non-SnCs) were treated with Nutlin-3 at different concentrations. After 24 hours, the medium was removed, and a medium including propidium iodide (PI, BD Biosciences, 51-66211E, 1.5 ug/ml) and Hoechst 33342 (Invitrogen, H1399, 1 ug/ml) was added to each well. After 30 minutes, images were obtained using an ultra-high-resolution confocal laser scanning microscope (Carl Zeiss, LSM 800).

retinal tissue [4] = assay: Lesion mitigation in vivo, color fundus and fundus autofluorescence images; conditions: 20 ng/μl Nutlin-3 intravitreal, senescence-induced mice
Method: as §1

retinal tissue [5] = assay: Lesion alleviation in vivo with combination, fundus autofluorescence image; conditions: senescence-induced mice of Example 12
Method: Under an optical microscope (Olympus SZ51, Tokyo, Japan), a small hole was made in the limbus using a 30-gage sterile needle (BD Science, San Jose, USA). Then, a blunt 35-gage Hamilton microsyringe (Hamilton Company, NV, USA) was slowly inserted through the hole. After injecting 1 uL of 100 ng/μl Dox or 1.4 μg/μl Alu RNA into the subretinal space of C57BL/6N or C57BL/6J mice for 7 days, 20 ng/μl Nutlin-3 (#SML0580, St. Louis, USA) or vehicle (0.4% DMSO in normal saline) was administered to the retina on day 0 and day 3, and 50 mg/kg of Nutlin-3 and 100 mg/kg of nicotinamide were mixed at the ratio of 1:2 and the mixture was administered orally through the feeding needle catheter every day for 3 days.
After dilation of the eye with TRC-50 IX camera (Topcon, Tokyo, Japan) connected to a digital imaging system (Nikon, Japan) and HRA2 (Heidelberg Engineering, Heidelberg, Germany), the fundus autofluorescence image of the eye of the mice was captured.

ARPE-19 cells = assay: Induction of senescent cells by doxorubicin, SA-β-gal staining; type: cell-based, human; conditions: 250 nM doxorubicin, 3 days
Source text: ARPE-19, a human retinal pigment epithelium (RPE) cell line, was induced into senescent cells using doxorubicin (Dox), which is used to form peroxide anions, induce DNA damage, and induce cell aging.
ARPE-19 cells were obtained from American Type Culture Collection (ATCC, CRL-2302, Va., U.S.A.), and cultured using a Dulbecco's modified Eagle's medium/nutrient mixture F-12 (WellGene, LM 002-04, Korea) supplemented with 10% fetal bovine serum (Invitrogen 16000, Waltham, U.S.A.) and penicillin-streptomycin (pen/strep, WellGene, LS 202-02) in a humidifying incubator having 5% CO2 at the temperature of 37° C. Cells were used after the cells were subcultured to 15-25 passages and reached the density population of about 70%-about 80%.
The cultured ARPE-19 cells were seeded in 24- or 6-well plates at a density of 25,000 or 100,000 cells per well prior to inducing cell aging with doxorubicin (Dox, Tocris Bioscience #2252, Bristol, UK). After 24 hours, 250 nM doxorubicin was added and the cells were incubated for another 3 days. After 3 days, the cells were placed in a doxorubicin-free medium and the medium was replaced daily. On day 10, senescent cells (SnCs) that were treated with doxorubicin and non-senescent cells (non-SnCs) that were not treated with doxorubicin but replaced with medium alone were seeded into 24- or 6-well plates for further experiments. […]

retinal tissue [6] = assay: Drusen and Bruch's membrane thickness by TEM after senescence induction with doxorubicin; type: in vivo, mice; conditions: 100 ng/μl Dox subretinal
Method: Under an optical microscope (Olympus SZ51, Tokyo, Japan), a small hole was made in the limbus using a 30-gage sterile needle (BD Science, San Jose, USA). Then, a blunt 35-gage Hamilton microsyringe (Hamilton Company, NV, USA) was slowly inserted through the hole. 1 uL of 100 ng/μl Dox or 1.4 μg/μl Alu RNA was injected into the subretinal space of C57BL/6N or C57BL/6J mice for 7 days. In addition, the eye of mice was fixed with a solution including 2% glutaraldehyde and 3.75% sucrose in 0.1 M sodium phosphate buffer (pH 7.0), for 30 minutes, and washed three times with 0.1 M PBS including 3.75% sucrose for 30 minutes to prepare a sample for TEM. The eye was fixed with a solution including 0.1% osmium tetraoxide and 5% sucrose in 0.05 M sodium phosphate buffer (pH 7.0) for 1 hour and rinsed three times with distilled water. The sample was then dehydrated in a series of acetone solutions (step 20%), which were graded, and embedded in an epoxy resin. The resin was polymerized at 70° C. for 12 hours. Ultra-thin sections (100 nm) were obtained using RMC CR-X ultra microtomes and then images thereof were obtained using a JEOL JEM-1400 electron microscope. The thickness of the Bruch's membrane was measured using TEM.

SMILES | amount of drusen compared to vehicle-only senescent cells (retinal tissue [1]) | thickness of the Bruch's membrane compared to vehicle-only senescent cells (retinal tissue [1]) | expression of p53 in senescent cells (p53) | cell tissue alignment (ZO-1) compared to vehicle group (ZO-1) | β-galactosidase expression compared to vehicle group [2] | cell tissue alignment state (ZO-1) compared to vehicle group (ZO-1 or APOE) | senescent cells killed compared with non-senescent cells ([3]; 50 uM Nutlin-3, 24 hours) [times] | senescent cells killed compared with non-senescent cells ([3]; 75 uM Nutlin-3, 24 hours) [times] | waste in fundus images compared to vehicle group (retinal tissue [4]) | waste in fundus autofluorescence image compared to vehicle group (retinal tissue [5]) | induction of ARPE-19 cells into senescent cells (SA-β-gal staining) (ARPE-19 cells) | amount of drusen after senescent cell induction (retinal tissue [6]) | thickness of the Bruch's membrane after senescent cell induction (retinal tissue [6])
COc1ccc(C2=N[C@@H](c3ccc(Cl)cc3)[C@@H](c3ccc(Cl)cc3)N2C(=O)N2CCNC(=O)C2)c(OC(C)C)c1 [Nutlin-3] | reduced | reduced | further increased | improved | low | improved | 7 | 3 | significantly reduced | significantly reduced |  |  | 
COc1cccc2c1C(=O)c1c(O)c3c(c(O)c1C2=O)C[C@@](O)(C(=O)CO)C[C@@H]3O[C@H]1C[C@H](N)[C@H](O)[C@H](C)O1 [doxorubicin] |  |  |  |  |  |  |  |  |  |  | induced to senescent cells | increased | increased
